Test results: US10787442B2, “Modulators of indoleamine 2,3-dioxygenase” (GLAXOSMITHKLINE INTELLECTUAL PROPERTY DEVELOPMENT LIMITED, priority 2016, dated 2020)

Test system: human peripheral blood mononuclear cells (PBMC)
Assay: PBMC cytotoxicity assay (CellTiter-Glo)
Format: cell-based
Settings: cytotoxicity in stimulated PBMC, recorded as pCC50
Procedure: Compounds of the present invention were tested via high-throughput cellular assays utilizing detection of kynurenine via mass spectrometry and cytotoxicity as end-points. […] Compounds with IDO1 inhibitory properties decreased the amount of kynurenine produced by the cells via the tryptophan catabolic pathway. Cellular toxicity due to the effect of compound treatment was measured using CellTiter-Glo® reagent (CTG) (Promega Corporation, Madison, Wis.), which is based on luminescent detection of ATP, an indicator of metabolically active cells.
In preparation for the assays, test compounds were serially diluted 3-fold in DMSO from a typical top concentration of 1 mM or 5 mM and plated at 0.5 μL in 384-well, polystyrene, clear bottom, tissue culture treated plates with lids (Greiner Bio-One, Kremsmünster, Austria) to generate 11-point dose response curves. Low control wells (0% kynurenine or 100% cytotoxicity) contained either 0.5 μL of DMSO in the presence of unstimulated (−IFN-γ/−LPS) PBMCs for the mass spectrometry assay or 0.5 μL of DMSO in the absence of cells for the cytotoxicity assay, and high control wells (100% kynurenine or 0% cytotoxicity) contained 0.5 μL of DMSO in the presence of stimulated (+IFN-γ/+LPS) PBMCs for both the mass spectrometry and cytotoxicity assays.
Frozen stocks of PBMCs were washed and recovered in RPMI 1640 medium (Thermo Fisher Scientific, Inc., Waltham, Mass.) supplemented with 10% v/v heat-inactivated fetal bovine serum (FBS) (Thermo Fisher Scientific, Inc., Waltham, Mass.), and 1× penicillin-streptomycin antibiotic solution (Thermo Fisher Scientific, Inc., Waltham, Mass.). The cells were diluted to 1,000,000 cells/mL in the supplemented RPMI 1640 medium. 50 μL of either the cell suspension, for the mass spectrometry assay, or medium alone, for the cytotoxicity assay, were added to the low control wells, on the previously prepared 384-well compound plates, resulting in 50,000 cells/well or 0 cells/well respectively. IFN-γ and LPS were added to the remaining cell suspension at final concentrations of 100 ng/ml and 50 ng/ml respectively, and 50 μL of the stimulated cells were added to all remaining wells on the 384-well compound plates. The plates, with lids, were then placed in a 37° C., 5% CO2 humidified incubator for 2 days.
Following incubation, the 384-well plates were removed from the incubator and allowed to equilibrate to room temperature for 30 minutes. For the cytotoxicity assay, CellTiter-Glo® was prepared according to the manufacturer's instructions, and 40 μL were added to each plate well. After a twenty minute incubation at room temperature, luminescence was read on an EnVision® Multilabel Reader (PerkinElmer Inc., Waltham, Mass.). For the mass spectrometry assay, 10 μL of supernatant from each well of the compound-treated plates were added to 40 μL of acetonitrile, containing 10 μM of an internal standard for normalization, in 384-well, polypropylene, V-bottom plates (Greiner Bio-One, Kremsmünster, Austria) to extract the organic analytes. Following centrifugation at 2000 rpm for 10 minutes, 10 μL from each well of the acetonitrile extraction plates were added to 90 μL of sterile, distilled H2O in 384-well, polypropylene, V-bottom plates for analysis of kynurenine and the internal standard on the RapidFire 300 (Agilent Technologies, Santa Clara, Calif.) and 4000 QTRAP MS (SCIEX, Framingham, Mass.). MS data were integrated using Agilent Technologies' RapidFire Integrator software, and data were normalized for analysis as a ratio of kynurenine to the internal standard.

Row | SMILES | PBMC_TOX PXC50
1 | COC(=O)c1c[nH]c(Nc2cc([C@H](C)CC(=O)O)cnc2N(CC(C)C)C2CCOCC2)n1 [Example 50, (3R)-3-(5-{[4-(methoxycarbonyl)-1H-imidazol-2-yl]amino}-6-[(2-methylpropyl)(oxan-4-yl)amino]pyridin-3-yl)butanoic acid] | <5.0
2 | CNC(=O)c1nnc(Nc2cc([C@H](C)CC(=O)O)cnc2N(CC(C)C)C2CCCCC2)s1 [Example 64, (3R)-3-{6-[cyclohexyl(2-methylpropyl)amino]-5-{[5-(methylcarbamoyl)-1,3,4-thiadiazol-2-yl]amino}pyridin-3-yl}butanoic acid] | <5.0
3 | CO[C@H]1CC[C@@H](N(CC(C)C)c2ncc([C@H](C)CC(=O)O)cc2Nc2ccc(Cl)cn2)CC1 [Example 24, (R)-3-(5-((5-chloropyridin-2-yl)amino)-6-(isobutyl((1s,4S)-4-methoxycyclohexyl)amino)pyridin-3-yl)butanoic acid] | <5.0
4 | CC(C)CN(c1ncc([C@H](C)CC(=O)NS(C)(=O)=O)cc1Nc1ccc(Cl)cn1)C1CCOCC1 [Example 79, (3R)-3-{5-[(5-chloropyridin-2-yl)amino]-6-[(2-methylpropyl)(oxan-4-yl)amino]pyridin-3-yl}-N-methanesulfonylbutanamide] | <5.0
5 | CC(C)CN(c1ncc([C@H](C)CC(=O)O)cc1Nc1ccc(Cl)cn1)C1CCC(F)(F)CC1 [Example 18, (R)-3-(5-((5-chloropyridin-2-yl)amino)-6-((4,4-difluorocyclohexyl) (isobutyl)amino)pyridin-3-yl)butanoic acid] | <5.0
6 | CC(C)CN(c1ncc([C@H](C)CC(=O)O)cc1Nc1ccc(Cl)nc1)C1CC(F)(F)C1 [Example 19, (R)-3-(5-((6-chloropyridin-3-yl)amino)-6-((3,3-difluorocyclobutyl)(isobutyl)amino)pyridin-3-yl) butanoic acid] | <5.0
7 | CC(C)CN(c1ncc([C@H](C)CC(=O)O)cc1Nc1nc(Cl)ns1)C1CCOCC1 [Example 39, (3R)-3-{5-[(3-chloro-1,2,4-thiadiazol-5-yl)amino]-6-[(2-methylpropyl)(oxan-4-yl)amino]pyridin-3-yl}butanoic acid] | <5.0
8 | C[C@H](CC(=O)O)c1cnc(N(CC2CC2)C2CCOCC2)c(Nc2ccc(Cl)cn2)c1 [Example 9, (R)-3-(5-((5-chloropyridin-2-yl)amino)-6-((cyclopropylmethyl)(tetrahydro-2H-pyran-4-yl)amino)pyridin-3-yl)butanoic acid] | <5.0
9 | COCc1ccc(Nc2cc([C@H](C)CC(=O)O)cnc2N(CC(C)C)[C@H]2CC[C@@H](OC)CC2)nc1 [Example 58, (3R)-3-(5-{[5-(methoxymethyl)pyridin-2-yl]amino}-6-[(2-methylpropyl)[(1s,4s)-4-methoxycyclohexyl]amino]pyridin-3-yl)butanoic acid] | <5.0
10 | CC(C)CN(c1ncc([C@H](C)CC(=O)O)cc1Nc1ccc(C#N)nn1)C1CCOCC1 [Example 74, (3R)-3-{5-[(6-cyanopyridazin-3-yl)amino]-6-[(2-methylpropyl)(oxan-4-yl)amino]pyridin-3-yl}butanoic acid] | <5.0
11 | CC(C)CN(c1ncc([C@H](C)CC(=O)O)cc1Nc1ccc(Cl)nn1)C1CCOCC1 [Example 60, (3R)-3-{5-[(6-chloropyridazin-3-yl)amino]-6-[(2-methylpropyl)(oxan-4-yl)amino]pyridin-3-yl}butanoic acid] | <5.0
12 | CC(C)CN(c1ncc([C@H](C)CC(=O)O)cc1Nc1ccc(Cl)cn1)C1CCCCC1 [Example 13, (R)-3-(5-((5-chloropyridin-2-yl)amino)-6-(cyclohexyl(isobutyl)amino)pyridin-3-yl)butanoic acid] | <5.0
